Measured values from US20250228796A1, “SKELETAL MUSCLE ENHANCER” (SATO PHARMACEUTICAL CO., LTD., priority 2022, published 2025).

Columns and labels:
Type in all cases: in vivo, mouse
[1] = test system: tibialis anterior muscle of muscle atrophy model; assay: Muscle atrophy model (hindlimb fixation): muscle weight and muscle fiber cross-sectional area; conditions: intramuscular
Excerpt: (§1) Seven-week old C57BL/6 Male mice (CLEA Japan, Inc.) were purchased, and used for experiment at the age of 8 weeks.
A model animal to which muscle atrophy had been caused by a method of fixing a hindlimb (J Appl Physiol, vol. 106, pp. 2049-2059, 2009) was used.
(§2) Under the anesthesia with isoflurane, the left hindlimb of the mouse in a bent state was fixed with a surgical stapler (Kaiser Plus. KEISEI MEDICAL INDUSTRIAL CO., LTD.). The right hindlimb of the same mouse was assigned to the sham-treatment side, and no fixation treatment was performed. After 3 or 7 days of the start of fixation, the tibialis anterior muscle (one of skeletal muscles) was collected by dissection. The sample collected after 3 days was supplied to the expression analysis of the muscle atrophy-related genes, and the sample collected after 7 days was supplied to the measurement of a muscle weight and the preparation of a muscle tissue section.
(§3) Body weight of the mouse was measured before collecting the tibialis anterior muscle. Furthermore, the weight of the collected tibialis anterior muscle was measured. From these measured values, the ratio (%) of the skeletal muscle weight per body weight of the mouse (weight of tibialis anterior muscle/body weight of mouse) was calculated.
(§4) Immediately after the collection of the tibialis anterior muscle, the tibialis anterior muscle was immersed in isopentane cooled with liquid nitrogen and was rapidly frozen. The frozen muscle tissue was cut into slices each having a thickness of 10 μm by using a cryostat (Leica Biosystems), and the slice was attached onto an antistripping coated slide glass (Matsunami Glass Ind., Ltd.).
A muscle tissue section was sufficiently air dried for 30 minutes under room temperature. After that, the muscle tissue sections was fixed by immersing it in acetone cooled to −30° C. and treating at −30° C. for 20 minutes. The fixed sections was air dried once and washed with PBS. Then the section was blocked by dropwisely adding a blocking reagent (Blocking One. NACALAI TESQUE, INC.) to the section and subjected to the blocking treatment for 1 hour. Next, a primary antibody (Anti-laminin-2 (α-2 Chain) antibody Rat monoclonal (Sigma-Aldrich)) obtained by being diluted 500 times with a blocking reagent was added dropwise, and the reaction was conducted at overnight at 4° C. Since laminin to which a primary antibody binds is a protein expressed in the basement membranes of all muscle cells, the laminin was used in this experiment as an index in order to measure the area of individual muscle cells in a section. The muscle tissue section after the reaction with the primary antibody was washed with PBS, and then was reacted for 1 hour with a secondary antibody (CF 488A Goat Anti-Rat IgG (H+L) (Biotium)) obtained by being diluted 500 times with the blocking reagent. The secondary antibody that is an anti-rat antibody conjugated with a fluorescent dye binds to the primary antibody, and stains the laminin. […] Set with DAPI” (Vector), and then the fluorescence observation was performed with an inverted microscope FSX100 (Olympus).
The muscle fiber cross-sectional area was measured basis of the image data taken from the fluorescence observation. After the image data was taken into image analysis software ImageJ (NIH), the cross-sectional area of the individual cells were measured on the basis of the cell membrane stained with laminin. […]

[2] = test system: Trim63 (MuRF1) mRNA expression; assay: Expression analysis of muscle atrophy-related gene Trim63 in muscle atrophy model; conditions: 3 days
Procedure: as §2
(§5) The tibialis anterior muscle was homogenized with Sepasol-RNA I Super G (NACALAI TESQUE, INC.), 1-bromo-3-chloropropane was added thereto, the mixture was stirred, and further centrifuged, then RNA was extracted from the supernatant. The extracted RNA was recovered with 2-propanol and 75% ethanol, and then subjected to the reverse transcription reaction (using ReverTra Ace qPCR RT Master Mix (Toyobo Co., Ltd.) according to the attached protocol) to synthesize cDNA. The synthesized CDNA was subjected to the real-time PCR method (using Applied Biosystems 7500 Real-Time PCR System (Thermo Fisher Scientific)) to measure mRNA expression of three genes, Trim63 (MuRF1), myostatin (Mstn), and Gapdh. Primer sequences used are as follows.
(§6) The expression levels of mRNA of Trim63 and Mstn (mTrim63 and mMstn) were calculated as a ratio to the expression level of mRNA of Gapdh (mGapdh). […]
(§7) Spermidine trihydrochloride (SPD) was administered to muscle atrophy model animals by three administration routes, and the expression variations of muscle atrophy-related genes Trim63 and Mstn were measured. […]
(§8) The mRNA expression of Trim63 and Mstn in the tibialis anterior muscle of the left hindlimb (fixed: Staple) and the right hindlimb (sham treatment: Sham) collected after 3 days of the start of fixation was measured.

[3] = test system: myostatin (Mstn) mRNA expression; assay: Expression analysis of muscle atrophy-related gene Mstn in muscle atrophy model; conditions: 3 days
Procedure: as §2, §5, §6, §7, §8

[4] = test system: tibialis anterior muscle of muscle damage model (CTX); assay: Muscle damage model (cardiotoxin): muscle weight and regenerated muscle fiber cross-sectional area; conditions: 7 days after CTX
Procedure: as §1
A model animal to which muscle damage had been caused by administion of snake venom cardiotoxin (CTX) was used. The model animal has been widely used in studies on regeneration from muscle damage.
Under the anesthesia with isoflurane, 50 μL of 10 μM CTX was administered to the tibialis anterior muscle of the right hindlimb of the mouse. Fifty μL of a phosphate buffer (PBS) was administered as a Vehicle to the tibialis anterior muscle of left hindlimb of the same mouse. After 7 days of the administration of CTX, the tibialis anterior muscle was collected by dissection, and supplied to the measurement of muscle weight and preparation of a muscle tissue section.
as §3, §4
A muscle tissue section was sufficiently air dried for 30 minutes under room temperature. After that, the muscle tissue sections was fixed by immersing it in acetone cooled to −30° C. and treating at −30° C. for 20 minutes. The fixed sections was air dried once and washed with PBS. Then the section was blocked by dropwisely adding a blocking reagent (Blocking One. NACALAI TESQUE, INC.) to the section and subjected to the blocking treatment for 1 hour. Next, a primary antibody (Anti-laminin-2 (α-2 Chain) antibody Rat monoclonal (Sigma-Aldrich)) obtained by being diluted 500 times with a blocking reagent was added dropwise, and the reaction was conducted at overnight at 4° C. Since laminin to which a primary antibody binds is a protein expressed in the basement membranes of all muscle cells, the laminin was used in this experiment as an index in order to measure the area of individual muscle cells in a section. The muscle tissue section after the reaction with the primary antibody was washed with PBS, and then was reacted for 1 hour with a secondary antibody (CF 488A Goat Anti-Rat IgG (H+L) (Biotium)) obtained by being diluted 500 times with the blocking reagent. The secondary antibody that is an anti-rat antibody conjugated with a fluorescent dye binds to the primary antibody, and stains the laminin. The muscle tissue sections after the reaction with the secondary antibody was washed with PBS, and sealed by using “VECTASHIELD Hard. Set with DAPI” (Vector), and then the fluorescence observation was performed with an inverted microscope FSX100 (Olympus).
The muscle fiber cross-sectional area was measured basis of the image data taken from the fluorescence observation. After the image data was taken into image analysis software ImageJ (NIH), the cross-sectional area of the individual cells were measured on the basis of the cell membrane stained with laminin. For the area measurement, “Analyze Particles” that is an add-in analysis program on ImageJ was used. The measurement results were shown as a distribution chart (histogram) of the areas and number of single-muscle fibers, and as an average value of the cross-sectional areas of all the single muscle fibers (mean muscle fiber area).
In the muscle damage model (Example 3), the regenerated muscle was used as a measurement target. […]

[5] = intraperitoneal, 19.6 mM 10 mL/kg once a day

## Cl.Cl.Cl.NCCCCNCCCN [SPD, Spermidine trihydrochloride]
[1]; 196 mM 10 μL once a day, 7 days, **P<0.01
  muscle weight loss due to hindlimb fixation: significant suppression
[1]; 196 mM 10 μL once a day, left hindlimb (fixed: Staple), 7 days after start of fixation
  muscle weight vs Vehicle administration group: significant increase
[1]; 196 mM 10 μL once a day, right hindlimb (sham treatment: Sham), 7 days after start of fixation
  muscle weight vs Vehicle administration group: significant increase
[1]; 7 days after start of fixation, ***P<0.001
  mean muscle fiber area vs Vehicle: significant increase
[1]; 7 days after start of fixation, whole muscle
  histogram of single-muscle fiber area vs Vehicle: shifted to the right side
[2]; intramuscular, 196 mM 10 μL once a day, fixed left hindlimb (Staple), *P<0.05
  Trim63 expression suppression (reduction vs Staple, Vehicle): 65.6%
[2]; intraperitoneal, 19.6 mM 10 mL/kg once a day, Staple
  Trim63 expression suppression (reduction vs Staple, Vehicle): 42.3%
[2]; oral, 30 mM in drinking water
  Trim63 expression suppression: no expression suppression
[3]; intramuscular, 196 mM 10 μL once a day, Staple, **P<0.01
  Mstn expression suppression (reduction vs Staple, Vehicle): 61.1%
[3]; [5]
  Mstn expression suppression: did not show significant expression suppression
[3]; oral, 30 mM in drinking water
  Mstn expression suppression: did not show significant expression suppression
[4]; intramuscular, 196 mM 10 μL once a day
  suppression of muscle weight loss by CTX: remarkable suppression
[4]; intramuscular
  histogram of regenerated single-muscle fiber area vs Vehicle: shifted to the right side
[4]; intramuscular, ***P<0.001
  mean muscle fiber area (regenerated muscle) vs Vehicle: significant increase
[4]; [5]
  suppression of muscle weight loss by CTX: a significant suppression was not observed
[4]; intraperitoneal
  histogram of regenerated single-muscle fiber area vs Vehicle: no shift
  mean muscle fiber area (regenerated muscle) vs Vehicle: no significant increase
[4]; oral, 30 mM in drinking water
  suppression of muscle weight loss by CTX: a significant suppression was not observed
[4]; oral
  histogram of regenerated single-muscle fiber area vs Vehicle: no shift
  mean muscle fiber area (regenerated muscle) vs Vehicle: no significant increase
